The assay has as its system B6C3F1 mice, Lewis lung carcinoma iv, survival T/C. The assay can be described thus: NCI In Vivo Anticancer Drug Screen. Data for tumor model Lewis Lung Carcinoma (intravenous) in B6C3F1 mice. Particulars: endpoint: median survival time, schedule: Q01DX009 (ip), higher = longer survival. The essentials:
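Tumors were transplanted into mice, which were then dosed with compound or vehicle. Survival was recorded in each group, and the treated figure was divided by the control figure.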

Where [1] appears, read: dose: 12.5 mg/kg/injection, vehicle: saline.
The mark [2] stands for this setting: dose: 25.0 mg/kg/injection, vehicle: saline.
Where [3] appears, read: dose: 50.0 mg/kg/injection, vehicle: saline.
Where [4] appears, read: dose: 100.0 mg/kg/injection, vehicle: saline.
[5] abbreviates: dose: 200.0 mg/kg/injection, vehicle: saline.
[6] abbreviates: dose: 400.0 mg/kg/injection, vehicle: saline.

Each structure is given as a SMILES string. Inconclusive results and toxic doses are left out.

For the compound `CCOC(=O)c1ccc(NN=NCCF)cc1`, the T/C (dose: 3.0 mg/kg/injection, vehicle: distilled water + alcohol) is 98 % of control; the T/C (dose: 3.12 mg/kg/injection, vehicle: distilled water + Tween-80) was 104 % of control; the T/C (dose: 6.0 mg/kg/injection, vehicle: distilled water + alcohol) was 96 % of control; the T/C (dose: 6.25 mg/kg/injection, vehicle: distilled water + Tween-80) is 113 % of control; the T/C (dose: 12.5 mg/kg/injection, vehicle: distilled water + Tween-80) was 98 % of control; the T/C (dose: 12.5 mg/kg/injection, vehicle: distilled water + alcohol) is 103 % of control. For the same compound, the T/C reads like this: (dose: 25.0 mg/kg/injection, vehicle: distilled water + Tween-80) 113 % of control; (dose: 25.0 mg/kg/injection, vehicle: distilled water + alcohol) 101 % of control; (dose: 50.0 mg/kg/injection, vehicle: distilled water + alcohol) 98 % of control; (dose: 100.0 mg/kg/injection, vehicle: distilled water + alcohol) 98 % of control.

As to `CC(C)=CC(=O)OC1C2C(C)=CC(=O)C(O)C2(C)C2C3(O)OCC24C(CC(=O)OC14)C(C)C3O` (stereo unspecified), the T/C by setting is: (dose: 0.25 mg/kg/injection, vehicle: distilled water + Tween-80) 107 % of control; (dose: 0.5 mg/kg/injection, vehicle: distilled water + Tween-80) 98 % of control; (dose: 1.0 mg/kg/injection, vehicle: distilled water + Tween-80) 102 % of control; (dose: 2.0 mg/kg/injection, vehicle: distilled water + Tween-80) 98 % of control.

Take `CO[C@H](/C(C)=C/C=C/C(C)=C/c1coc(C)n1)[C@H](C)[C@H]1C[C@@H](O)[C@@]2(C)O[C@H]2/C=C/[C@@H](C)[C@@H]2C[C@@H](CC(=O)O2)C[C@H]2O[C@@H]2C(=O)O1`: the T/C is 96 % of control (dose: 20.0 micrograms/kg/injection, vehicle: Klucel (hydroxypropylcellulose) (HPC)); 103 % of control (dose: 40.0 micrograms/kg/injection, vehicle: Klucel (hydroxypropylcellulose) (HPC)); 105 % of control (dose: 80.0 micrograms/kg/injection, vehicle: Klucel (hydroxypropylcellulose) (HPC)).

With `CCOC(=O)C1=C(C#N)C2(CCC(OCc3ccccc3)CC2)C(=O)O1` (stereo unspecified), the T/C reads like this: (dose: 12.5 mg/kg/injection, vehicle: suspension in saline) 94 % of control; (dose: 25.0 mg/kg/injection, vehicle: suspension in saline) 94 % of control; (dose: 50.0 mg/kg/injection, vehicle: suspension in saline) 92 % of control; (dose: 100.0 mg/kg/injection, vehicle: suspension in saline) 95 % of control; (dose: 200.0 mg/kg/injection, vehicle: suspension in saline) 102 % of control.

Consider `Cc1c(N)nc(C(CC(N)=O)NCC(N)C(N)=O)nc1C(=O)NC(C(=O)NC(C)C(O)C(C)C(=O)NC(C(=O)NCCc1nc(-c2nc(C(=O)NCCCNCCCc3ccccn3)cs2)cs1)C(C)O)C(OC1OC(CO)C(O)C(O)C1OC1OC(CO)C(O)C(OC(N)=O)C1O)c1cnc[nH]1` (stereo unspecified), for which the T/C is, setting by setting: (dose: 2.0 mg/kg/injection, vehicle: saline) 113 % of control; (dose: 3.0 mg/kg/injection, vehicle: saline + alcohol) 108 % of control; (dose: 4.0 mg/kg/injection, vehicle: saline) 110 % of control; (dose: 6.0 mg/kg/injection, vehicle: saline + alcohol) 108 % of control; (dose: 6.25 mg/kg/injection, vehicle: saline) 122 % of control; (dose: 8.0 mg/kg/injection, vehicle: saline) 114 % of control. Moreover, the T/C (dose: 12.0 mg/kg/injection, vehicle: saline + alcohol) was 123 % of control and the T/C under setting [1] was 123 % of control.

`CC(=O)Oc1c(C)[nH]ccc1=O`: the T/C by setting is: under setting [2], 97 % of control; under setting [3], 96 % of control; under setting [4], 96 % of control; under setting [5], 103 % of control; under setting [6], 114 % of control.

Turning to `C[n+]1cccc(NC(=O)c2ccc(NC(=O)C34CCC(C(=O)Nc5ccc(C(=O)Nc6ccc[n+](C)c6)cc5)(CC3)CC4)cc2)c1`, the T/C reads like this: (dose: 5.0 mg/kg/injection, vehicle: saline with Tween-80) 106 % of control; (dose: 10.0 mg/kg/injection, vehicle: saline with Tween-80) 122 % of control.

Consider `O=C(O)CC(NC(=O)CP(=O)(O)O)C(=O)O` (stereo unspecified), for which the T/C by setting is: under setting [1], 99 % of control; under setting [2], 103 % of control; under setting [4], 158 % of control; under setting [5], 187 % of control.

For the compound `CCCCCC[C@H]([C@H](C)O)n1cnc2c(N)ncnc21`, the T/C by setting is: (dose: 3.12 mg/kg/injection, vehicle: Klucel (hydroxypropylcellulose) (HPC)) 88 % of control; (dose: 6.25 mg/kg/injection, vehicle: Klucel (hydroxypropylcellulose) (HPC)) 101 % of control; (dose: 12.5 mg/kg/injection, vehicle: Klucel (hydroxypropylcellulose) (HPC)) 114 % of control; (dose: 25.0 mg/kg/injection, vehicle: Klucel (hydroxypropylcellulose) (HPC)) 94 % of control; (dose: 50.0 mg/kg/injection, vehicle: Klucel (hydroxypropylcellulose) (HPC)) 109 % of control; (dose: 100.0 mg/kg/injection, vehicle: Klucel (hydroxypropylcellulose) (HPC)) 105 % of control.

For the compound `N#CC(OC1OC(COC2OC(CO)C(O)C(O)C2O)C(O)C(O)C1O)c1ccccc1` (stereo unspecified), the T/C (dose: 25.0 mg/kg/injection, vehicle: water) was 92 % of control; the T/C (dose: 50.0 mg/kg/injection, vehicle: water) was 97 % of control; the T/C (dose: 100.0 mg/kg/injection, vehicle: water) is 98 % of control; the T/C (dose: 200.0 mg/kg/injection, vehicle: water) is 98 % of control; the T/C (dose: 400.0 mg/kg/injection, vehicle: water) was 98 % of control; the T/C (dose: 800.0 mg/kg/injection, vehicle: water) is 98 % of control.

In the case of `CC(=O)Nc1ccc(Nc2ccc(C(=C3C=CC(=[N+](C)CCC#N)C=C3)c3ccc(N(C)CCC#N)cc3)cc2)cc1`, the T/C was 102 % of control (dose: 0.39 mg/kg/injection, vehicle: saline with Tween-80); 102 % of control (dose: 0.78 mg/kg/injection, vehicle: saline with Tween-80); 98 % of control (dose: 1.56 mg/kg/injection, vehicle: saline with Tween-80); 104 % of control (dose: 3.12 mg/kg/injection, vehicle: saline with Tween-80); 97 % of control (dose: 6.25 mg/kg/injection, vehicle: saline with Tween-80); 105 % of control (dose: 12.5 mg/kg/injection, vehicle: saline with Tween-80).

As to `Nc1nc(F)nc2c1ncn2C1OC(COP(=O)(O)O)C(O)C1O` (stereo unspecified), the T/C is, setting by setting: under setting [1], 105 % of control; under setting [2], 102 % of control; under setting [3], 103 % of control; under setting [4], 114 % of control; under setting [5], 87 % of control.

`Cc1ncc([N+](=O)[O-])n1CCSC(N)=O`: the T/C was 107 % of control under setting [1]; 102 % of control under setting [2]; 110 % of control under setting [3]; 95 % of control under setting [4]; 106 % of control under setting [5]; 97 % of control under setting [6].

Turning to `N#C[C@H](OC1OC(COC2OC(CO)C(O)C(O)C2O)C(O)C(O)C1O)c1ccccc1` (stereo partly specified), the T/C under setting [2] was 111 % of control; the T/C under setting [3] was 95 % of control; the T/C under setting [4] is 95 % of control; the T/C under setting [5] is 92 % of control; the T/C under setting [6] was 97 % of control; the T/C (dose: 800.0 mg/kg/injection, vehicle: saline) is 101 % of control.
